Results as given in US8778973B2, “Alkene oxindole derivatives” (Hoffmann-La Roche Inc., priority 2009, dated 2014).

Each compound was assayed on Recombinant human AMPK proteins (α1β1γ1, α2β1γ1, α1(1-335), α1(1-394) or α2(1-394)) (assay: Scintillation Proximity Assay (SPA) of AMPK activation). Details: activator concentration for 50% of maximal enzyme activity; 50 nM recombinant AMPK, 2 μM ATP, 30° C., 2 hr.
Format: biochemical
Description: Recombinant human AMPK α1β1γ1, α2β1γ1 or AMPK α subunit truncations α1(1-335), α1(1-394) and α2(1-394) were constructed, expressed and purified as described previously (Pang, T., Zhang, Z. S., Gu, M., Qiu, B. Y., Yu, L. F., Cao, P. R., Shao, W., Su, M. B., Li, J. Y., Nan, F. J., and Li, J. (2008)). Rat liver AMPK heterotrimer enzyme was obtained from Upstate (Billerica, Mass., U.S.A.).
Scintillation Proximity Assay
Before the Scintillation Proximity Assay (SPA) assay, 200 nM recombinant AMPK proteins (α1β1γ1, α2β1γ1, α1(1-335), α1(1-394) or α2(1-394)) were fully phosphorylated as described previously (Pang et al., 2008). SPA reactions were performed in 96-well plates at a final volume of 501 containing 20 mM Tris-HCl pH 7.5, 5 mM MgCl2, 1 mM DTT, 2 μM biotin-SAMS, 2 μM ATP, 0.2 μCi/well [γ-^33P]ATP, and various amount of activator. Reactions were initiated by the addition of 50 nM recombinant AMPK proteins to the reaction solutions and incubated at 30° C. for 2 hr. After that, reactions were terminated by the addition of 401 stop solution containing 80 μg streptavidin-coated SPA beads per well, 50 mM EDTA, 0.1% Triton X-100 in PBS, pH 7.5 and incubated for 1 hr. Finally, a 160 ul suspension solution containing 2.4 M CsCl, 50 mM EDTA, and 0.1% Triton X-100 in PBS (pH 7.5) was added to the reaction solution to suspend SPA beads completely. SPA signals were determined with a Wallac MicroBeta plate counter (PerkinElmer) 30 min later for calculation of the amount of product formed. The amount of products formed in 2 hr was plotted against activator concentrations to determine the effective concentration of the activator (EC50) required for 50% of maximal enzyme activity.
Compounds as described above have EC50 values between 0.5 uM and 50 uM, preferred compounds have EC50 values between 0.5 uM and 10 uM, particularly preferred compounds have EC50 values between 0.5 uM and 1 uM.
With `CCOC(=O)c1cccc(N2C(=O)/C(=C(\C)c3ccccc3)c3ccccc32)c1` [Example 1, 3-[2-Oxo-3-(1-phenyl-ethylidene)-2,3-dihydro-indol-1-yl]-benzoic acid ethyl ester] the EC50 was 2210 nM.
Work on `COC(=O)Cc1cccc(N2C(=O)/C(=C(\C)c3ccccc3)c3ccccc32)c1` [Example 2, (3-{2-Oxo-3-[1-phenyl-eth-(E)-ylidene]-2,3-dihydro-indol-1-yl}-phenyl)-acetic acid methyl ester] yielded an EC50 of 1490 nM.
`COC(=O)c1cc(N2C(=O)/C(=C(\C)c3ccccc3)c3ccccc32)ccc1C` [Example 3, 2-Methyl-5-{2-oxo-3-[1-phenyl-eth-(E)-ylidene]-2,3-dihydro-indol-1-yl}-benzoic acid methyl ester] gave an EC50 of 5610 nM.
`C/C(=C1\C(=O)N(CC(=O)O)c2ccccc21)c1ccccc1` [Example 4, [2-Oxo-3-(1-phenyl-ethylidene)-2,3-dihydro-indol-1-yl]-acetic acid] showed an EC50 of 5250 nM.
`COC(=O)c1cccc(CN2C(=O)/C(=C(\c3ccccc3)c3ccc(Cl)cc3)c3ccccc32)c1` [Example 5, 3-((3-((4-Chlorophenyl)(phenyl)meth-(E)-ylene)-2-oxoindolin-1-yl)methyl)benzoic acid methyl ester] showed an EC50 of 2300 nM.
`COC(=O)c1cccc(CN2C(=O)/C(=C(\c3ccccc3)c3ccc(Cl)cc3)c3cccc(F)c32)c1` [Example 6, 3-{3-[1-(4-Chloro-phenyl)-1-phenyl-meth-(E)-ylidene]-7-fluoro-2-oxo-2,3-dihydro-indol-1-ylmethyl}-benzoic acid methyl ester] showed an EC50 of 1510 nM.
`COC(=O)c1cccc(CN2C(=O)C(=C(c3ccccc3)c3ccccc3)c3ccccc32)c1` [Example 7, 3-(3-Benzhydrylidene-2-oxo-2,3-dihydro-indol-1-ylmethyl)-benzoic acid methyl ester] was tested, and the EC50 was 1540 nM.
In the case of `COC(=O)c1cccc(CN2C(=O)/C(=C(\c3ccccc3)c3ccc(OC)cc3)c3ccccc32)c1` [Example 8, 3-{3-[1-(4-Methoxy-phenyl)-1-phenyl-meth-(E)-ylidene]-2-oxo-2,3-dihydro-indol-1-ylmethyl}-benzoic acid methyl ester], the EC50 is reported as 6470 nM.
Work on `COC(=O)c1cccc(CN2C(=O)/C(=C(\c3ccccc3)c3ccc(C)cc3)c3ccccc32)c1` [Example 9, 3-{2-Oxo-3-[1-phenyl-1-p-tolyl-meth-(E)-ylidene]-2,3-dihydro-indol-1-ylmethyl}-benzoic acid methyl ester] yielded an EC50 of 2160 nM.
For `COC(=O)c1cccc(CN2C(=O)/C(=C(/c3ccc(Cl)cc3)c3ccccc3OC)c3ccccc32)c1` [Example 10, 3-{3-[1-(4-Chloro-phenyl)-1-(2-methoxy-phenyl)-meth-(Z)-ylidene]-2-oxo-2,3-dihydro-indol-1-ylmethyl}-benzoic acid methyl ester], the EC50 was 4440 nM.
In the case of `COC(=O)c1cccc(CN2C(=O)/C(=C(\c3ccccc3)c3ccc(C#N)cc3)c3ccccc32)c1` [Example 11, 3-{3-[1-(4-Cyano-phenyl)-1-phenyl-meth-(E)-ylidene]-2-oxo-2,3-dihydro-indol-1-ylmethyl}-benzoic acid methyl ester], the EC50 is reported as 3110 nM.
With `COC(=O)c1cccc(CN2C(=O)/C(=C(\c3ccccc3)c3ccc(C(F)(F)F)cc3)c3ccccc32)c1` [Example 12, 3-{2-Oxo-3-[1-phenyl-1-(4-trifluoromethyl-phenyl)-meth-(E)-ylidene]-2,3-dihydro-indol-1-ylmethyl}-benzoic acid methyl ester] the EC50 was 5340 nM.
Compound `COC(=O)c1cccc(CN2C(=O)/C(=C(\c3ccccc3)c3ccc(F)c(Cl)c3)c3ccccc32)c1` [Example 13, 3-{3-[1-(3-Chloro-4-fluoro-phenyl)-1-phenyl-meth-(E)-ylidene]-2-oxo-2,3-dihydro-indol-1-ylmethyl}-benzoic acid methyl ester] has an EC50 of 1860 nM.
`COC(=O)c1cccc(CN2C(=O)/C(=C(\c3ccccc3)c3cc(OC)c(OC)c(OC)c3)c3ccccc32)c1` [Example 14, 3-{2-Oxo-3-[1-phenyl-1-(3,4,5-trimethoxy-phenyl)-meth-(E)-ylidene]-2,3-dihydro-indol-1-ylmethyl}-benzoic acid methyl ester] was tested, and the EC50 was 4340 nM.
For `COC(=O)c1cccc(CN2C(=O)/C(=C(\c3ccccc3)c3ccc(F)c(F)c3)c3ccccc32)c1` [Example 15, 3-{3-[1-(3,4-Difluoro-phenyl)-1-phenyl-meth-(E)-ylidene]-2-oxo-2,3-dihydro-indol-1-ylmethyl}-benzoic acid methyl ester], the EC50 was 2470 nM.
`COC(=O)c1cccc(CN2C(=O)/C(=C(\c3ccccc3)c3cccc(Cl)c3)c3ccccc32)c1` [Example 16, 3-{3-[1-(3-Chloro-phenyl)-1-phenyl-meth-(E)-ylidene]-2-oxo-2,3-dihydro-indol-1-ylmethyl}-benzoic acid methyl ester] showed an EC50 of 1530 nM.
Work on `COC(=O)c1cccc(CN2C(=O)/C(=C(\c3ccccc3)c3ccccc3Cl)c3ccccc32)c1` [Example 17, 3-{3-[1-(2-Chloro-phenyl)-1-phenyl-meth-(E)-ylidene]-2-oxo-2,3-dihydro-indol-1-ylmethyl}-benzoic acid methyl ester] yielded an EC50 of 2340 nM.
`COC(=O)c1cccc(CN2C(=O)/C(=C(\c3ccccc3)c3ccc(Cl)cc3)c3cc(F)ccc32)c1` [Example 18, 3-{3-[1-(4-Chloro-phenyl)-1-phenyl-meth-(E)-ylidene]-5-fluoro-2-oxo-2,3-dihydro-indol-1-ylmethyl}-benzoic acid methyl ester] showed an EC50 of 5660 nM.
`COC(=O)c1cccc(CN2C(=O)/C(=C(\c3ccccc3)c3cc(Cl)cc(Cl)c3)c3ccccc32)c1` [Example 19, 3-{3-[1-(3,5-Dichloro-phenyl)-1-phenyl-meth-(E)-ylidene]-2-oxo-2,3-dihydro-indol-1-ylmethyl}-benzoic acid methyl ester] showed an EC50 of 1000 nM.
`COC(=O)c1cccc(CN2C(=O)/C(=C(\c3ccccc3)c3cccc(Cl)c3Cl)c3ccccc32)c1` [Example 20, 3-{3-[1-(2,3-Dichloro-phenyl)-1-phenyl-meth-(E)-ylidene]-2-oxo-2,3-dihydro-indol-1-ylmethyl}-benzoic acid methyl ester] was tested, and the EC50 was 1760 nM.
For `COC(=O)c1ccc(CN2C(=O)/C(=C(\c3ccccc3)c3ccc(Cl)cc3)c3ccccc32)cc1` [Example 21, 4-{3-[1-(4-Chloro-phenyl)-1-phenyl-meth-(E)-ylidene]-2-oxo-2,3-dihydro-indol-1-ylmethyl}-benzoic acid methyl ester], the EC50 was 6070 nM.
`COC(=O)c1cccc(CN2C(=O)/C(=C(\c3ccccc3)c3ccc(Cl)cc3)c3cc(OC)ccc32)c1` [Example 22, 3-{3-[1-(4-Chloro-phenyl)-1-phenyl-meth-(E)-ylidene]-5-methoxy-2-oxo-2,3-dihydro-indol-1-ylmethyl}-benzoic acid methyl ester] showed an EC50 of 4130 nM.
`COC(=O)c1cccc(CN2C(=O)/C(=C(\c3ccccc3)c3ccccc3Br)c3ccccc32)c1` [Example 23, 3-{3-[1-(2-Bromo-phenyl)-1-phenyl-meth-(E)-ylidene]-2-oxo-2,3-dihydro-indol-1-ylmethyl}-benzoic acid methyl ester] showed an EC50 of 6970 nM.
With `COC(=O)c1cccc(CN2C(=O)/C(=C(\c3ccccc3)c3cc(C(F)(F)F)ccc3Cl)c3ccccc32)c1` [Example 24, 3-{3-[1-(2-Chloro-5-trifluoromethyl-phenyl)-1-phenyl-meth-(E)-ylidene]-2-oxo-2,3-dihydro-indol-1-ylmethyl}-benzoic acid methyl ester] the EC50 was 4820 nM.
Work on `COC(=O)c1cccc(CN2C(=O)/C(=C(\c3ccccc3)c3ccc(Cl)cc3)c3c(F)cccc32)c1` [Example 25, 3-{3-[1-(4-Chloro-phenyl)-1-phenyl-meth-(E)-ylidene]-4-fluoro-2-oxo-2,3-dihydro-indol-1-ylmethyl}-benzoic acid methyl ester] yielded an EC50 of 2730 nM.
For `COC(=O)c1cccc(CN2C(=O)/C(=C(\c3ccccc3)c3ccc(Cl)cc3)c3ccc(F)cc32)c1` [Example 26, 3-{3-[1-(4-Chloro-phenyl)-1-phenyl-meth-(E)-ylidene]-6-fluoro-2-oxo-2,3-dihydro-indol-1-ylmethyl}-benzoic acid methyl ester], the EC50 was 1250 nM.
In the case of `COC(=O)c1cccc(CN2C(=O)/C(=C(\c3ccccc3)c3cccc(Br)c3)c3ccccc32)c1` [Example 27, 3-{3-[1-(3-Bromo-phenyl)-1-phenyl-meth-(E)-ylidene]-2-oxo-2,3-dihydro-indol-1-ylmethyl}-benzoic acid methyl ester], the EC50 is reported as 2730 nM.
`COC(=O)c1cccc(CN2C(=O)/C(=C(\c3ccccc3)c3ccccc3SC)c3ccccc32)c1` [Example 28, 3-{3-[1-(2-Methylsulfanyl-phenyl)-1-phenyl-meth-(E)-ylidene]-2-oxo-2,3-dihydro-indol-1-ylmethyl}-benzoic acid methyl ester] gave an EC50 of 800 nM.
